Results reported in PubChem BioAssay (NCI).
Where “and” joins values, the source holds several entries; their conditions need not be identical. Equal entries are not always repeated.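 Exposure lasted 48 hours, with cells grown in 96-well plates and compounds tested at five concentrations. GI50 is the concentration that inhibits growth by half. TGI: total growth inhibition.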

Assays:
Test in all cases: NCI-60 cell line screen, 48 h
[1] = test system: 786-0 renal
[2] = test system: A498 renal
[3] = test system: A549 NSCLC
[4] = test system: ACHN renal
[5] = test system: BT-549 breast
[6] = test system: CAKI-1 renal
[7] = test system: CCRF-CEM leukemia
[8] = test system: COLO 205 colon
[9] = test system: DU-145 prostate
[10] = test system: EKVX NSCLC
[11] = test system: HCC-2998 colon
[12] = test system: HCT-116 colon
[13] = test system: HCT-15 colon
[14] = test system: HL-60(TB) leukemia
[15] = test system: HOP-62 NSCLC
[16] = test system: HOP-92 NSCLC
[17] = test system: HS 578T breast
[18] = test system: HT29 colon
[19] = test system: IGROV1 ovarian
[20] = test system: K-562 leukemia
[21] = test system: KM12 colon
[22] = test system: LOX IMVI melanoma
[23] = test system: M14 melanoma
[24] = test system: MALME-3M melanoma
[25] = test system: MCF7 breast
[26] = test system: MDA-MB-231 breast
[27] = test system: MDA-MB-435
[28] = test system: MDA-MB-468 breast
[29] = test system: MOLT-4 leukemia
[30] = test system: NCI-H226 lung
[31] = test system: NCI-H23 lung
[32] = test system: NCI-H460 lung
[33] = test system: NCI-H522 lung
[34] = test system: OVCAR-3 ovarian
[35] = test system: OVCAR-4 ovarian
[36] = test system: OVCAR-5 ovarian
[37] = test system: OVCAR-8 ovarian
[38] = test system: PC-3 prostate
[39] = test system: RPMI-8226 leukemia
[40] = test system: RXF 393 renal
[41] = test system: SF-268 CNS
[42] = test system: SF-295 CNS
[43] = test system: SF-539 CNS
[44] = test system: SK-MEL-2 melanoma
[45] = test system: SK-MEL-28 melanoma
[46] = test system: SK-MEL-5 melanoma
[47] = test system: SK-OV-3 ovarian
[48] = test system: SN12C renal
[49] = test system: SNB-19 CNS
[50] = test system: SR leukemia
[51] = test system: SW-620 colon
[52] = test system: T-47D breast
[53] = test system: TK-10 renal
[54] = test system: U251 CNS
[55] = test system: UACC-257 melanoma
[56] = test system: UACC-62 melanoma
[57] = test system: UO-31 renal

Work on `Cc1ccc(C(=O)CSc2nc3ccc(F)cc3c(=O)n2-c2ccc(Cl)cc2)cc1` yielded a GI50 [1] of 11.1 µM, a TGI [1] of over 100 µM and a GI50 [2] of over 100 µM. For the same molecule, the TGI [2] was over 100 µM, the GI50 [3] was over 100 µM and the TGI [3] was over 100 µM. It also gave a GI50 [4] of 6.83 µM, a TGI [4] of over 100 µM and a GI50 [5] of 11.2 µM. It also gave a TGI [5] of over 100 µM, a GI50 [6] of 4.49 µM and a TGI [6] of 44.5 µM. It also gave a GI50 [7] of over 100 µM, a TGI [7] of over 100 µM and a GI50 [8] of over 100 µM. For the same molecule, the TGI [8] was over 100 µM, the GI50 [9] was 59.5 µM and the TGI [9] was over 100 µM. The GI50 [10] was over 100 µM, the TGI [10] was over 100 µM and the GI50 [11] was over 100 µM. The TGI [11] was over 100 µM, the GI50 [12] was over 100 µM and the TGI [12] was over 100 µM. The GI50 [13] was over 100 µM, the TGI [13] was over 100 µM and the GI50 [14] was over 100 µM. The TGI [14] was over 100 µM, the GI50 [15] was 3.95 µM and the TGI [15] was 50.4 µM. It also gave a GI50 [16] of 5 µM, a TGI [16] of 57.5 µM and a GI50 [17] of 3.41 µM. The TGI [17] was 86.2 µM, the GI50 [18] was over 100 µM and the TGI [18] was over 100 µM. It also gave a GI50 [19] of 27.1 µM, a TGI [19] of over 100 µM and a GI50 [20] of over 100 µM. For the same molecule, the TGI [20] was over 100 µM, the GI50 [21] was over 100 µM and the TGI [21] was over 100 µM. For the same molecule, the GI50 [22] was 4.04 µM, the TGI [22] was over 100 µM and the GI50 [23] was over 100 µM. The TGI [23] was over 100 µM, the GI50 [24] was 66.7 µM and the TGI [24] was over 100 µM. For the same molecule, the GI50 [25] was over 100 µM, the TGI [25] was over 100 µM and the GI50 [26] was 15.1 µM. It also gave a TGI [26] of over 100 µM, a GI50 [27] of over 100 µM and a TGI [27] of over 100 µM. It also gave a GI50 [28] of 82.9 µM, a TGI [28] of over 100 µM and a GI50 [29] of over 100 µM. For the same molecule, the TGI [29] was over 100 µM, the GI50 [30] was 3.13 µM and the TGI [30] was 24.9 µM. It also gave a GI50 [31] of over 100 µM, a TGI [31] of over 100 µM and a GI50 [32] of 10.3 µM. It also gave a TGI [32] of over 100 µM, a GI50 [33] of over 100 µM and a TGI [33] of over 100 µM. For the same molecule, the GI50 [34] was over 100 µM, the TGI [34] was over 100 µM and the GI50 [35] was 9.45 µM. For the same molecule, the TGI [35] was over 100 µM, the GI50 [36] was over 100 µM and the TGI [36] was over 100 µM. It also gave a GI50 [37] of 7.89 µM, a TGI [37] of over 100 µM and a GI50 [38] of over 100 µM. It also gave a TGI [38] of over 100 µM, a GI50 [39] of over 100 µM and a TGI [39] of over 100 µM. It also gave a GI50 [40] of 4.89 µM, a TGI [40] of 32.6 µM and a GI50 [41] of 25.3 µM. The TGI [41] was over 100 µM, the GI50 [42] was 3.51 µM and the TGI [42] was 21.4 µM. The GI50 [43] was 5.08 µM, the TGI [43] was 47.4 µM and the GI50 [44] was over 100 µM. The TGI [44] was over 100 µM, the GI50 [45] was over 100 µM and the TGI [45] was over 100 µM. The GI50 [46] was over 100 µM, the TGI [46] was over 100 µM and the GI50 [47] was 39.1 µM. The TGI [47] was over 100 µM, the GI50 [48] was over 100 µM and the TGI [48] was over 100 µM. It also gave a GI50 [49] of 4.93 µM, a TGI [49] of 73.8 µM and a GI50 [50] of over 100 µM. The TGI [50] was over 100 µM, the GI50 [51] was over 100 µM and the TGI [51] was over 100 µM. The GI50 [52] was over 100 µM, the TGI [52] was over 100 µM and the GI50 [53] was 98.1 µM. It also gave a TGI [53] of over 100 µM, a GI50 [54] of 10.8 µM and a TGI [54] of over 100 µM. The GI50 [55] was over 100 µM, the TGI [55] was over 100 µM and the GI50 [56] was over 100 µM. For the same molecule, the TGI [56] was over 100 µM, the GI50 [57] was 37 µM and the TGI [57] was over 100 µM.
With `CS(=O)(=O)Nc1cc(-c2ccc3ncc(C#N)c(NCc4cccc(F)c4)c3c2)cnc1Cl` the GI50 [28] was 0.102 µM and the TGI [28] was 0.926 µM.
`Oc1ccc(NCc2nc3ccccc3[nH]2)cc1` was tested, and the GI50 [28] was 88.4 µM and the TGI [28] was over 100 µM.
Work on `C[C@@H]1OC(O)[C@@H](F)[C@H](O)[C@@H]1O` (some centres undefined) yielded a GI50 [28] of over 100 µM and a TGI [28] of over 100 µM.
For `CC1(C)OC2[C@@H](CNC(=O)NC(=O)NC(=O)CI)O[C@@H](n3cnc4c(NC(=O)Nc5ccccc5)ncnc43)[C@H]2O1` (some centres undefined), the GI50 [28] was 6.78 µM and the TGI [28] was 14.8 µM.
For `CC[C@@H]1C(=O)N(C)c2cnc(Nc3ccc(C(=O)NC4CCN(C)CC4)cc3OC)nc2N1C1CCCC1`, the GI50 [28] was 0.00135 µM and < 0.01 µM and the TGI [28] was 0.0164 µM and < 0.0183 µM.
In the case of `N#Cc1c(-c2ccc(F)cc2)nc(N/N=C/c2c[nH]c3ccccc23)nc1N1CCOCC1`, the GI50 [28] is reported as 3.46 µM and the TGI [28] is reported as 22.7 µM.
`CN1CCN(C(=O)OCc2nc3c(N4CCOCC4)nc(Cl)nc3n2C)CC1` showed a GI50 [28] of 0.923 µM and a TGI [28] of 2.33 µM.
For `C=CC(=O)N1CC2(CCN(c3nc(OC4CCN(CCCOC)CC4)nc4c(OCC(F)(F)F)c(-c5c(C)ccc6[nH]ncc56)c(C5CC5)cc34)CC2)C1`, the GI50 [28] was 1.59 µM and the TGI [28] was 3.29 µM.
In the case of `CC(C)(C)OC(=O)N1CCc2c(sc3ncnc(N/N=C/c4cccc5ccccc45)c23)C1`, the GI50 [28] is reported as 4.21 µM and the TGI [28] is reported as 28.1 µM.
Work on `OCc1c[nH]c2ccccc12` yielded a GI50 [28] of 25.1 µM and a TGI [28] of 75 µM.
